Laboratory results as given in US20250197387A1, “BCL-XL DEGRADERS AND USES THEREOF” (Kymera Therapeutics, Inc., priority 2021, published 2025).

Columns and labels:
Format in all cases: cell-based
[1] = test system: Caki-2 cells; test: CTG (CellTiter-Glo) cell viability assay, Caki-2; details: Homo sapiens, 72 h, 3 day incubation, read-out: CTG Chempartner - Caki-2 3 day: Average external-IC50
Outline: (§1)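 10,000 cells/well; 9 doses, 1:3 from 10 μM top; 0.2% DMSO; 3 d, 37 °C, 5% CO2; CTG luminescence; IC50 via 3-parameter logistic fit. Letter bins differ: Caki-2 C/D cut at 10.0 μM, MOLT-4 at 3.0 μM.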

[2] = target: T1, BCL-XL (Homo sapiens, UniProt Q07817); test: Bcl-xL ELISA degradation in MOLT-4 cells, 6 h; details: for DC50: read-out: Bcl-xL ELISA in MOLT-4 degradation 6 h: Mean external-Abs DC50
T1 construct: endogenous in cells; host or cells: MOLT-4
T1 sequence (Q07817 whole entry): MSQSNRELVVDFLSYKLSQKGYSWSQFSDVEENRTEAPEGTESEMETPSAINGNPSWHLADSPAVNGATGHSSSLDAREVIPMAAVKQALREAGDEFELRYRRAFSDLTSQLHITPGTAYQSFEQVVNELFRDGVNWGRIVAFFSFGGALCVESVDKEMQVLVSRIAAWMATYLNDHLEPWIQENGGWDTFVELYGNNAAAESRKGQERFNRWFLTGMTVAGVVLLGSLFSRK
Method: The letter codes for BCL-XL DC50 include: A (<0.01 μM); B (0.01-0.1 μM); C (>[…]); D (>0.5-1.0 μM); and E (>1.0 μM). The letter codes for Dmax % include A (>75%); B (50 to 75%); C (<50%).

[3] = test system: MOLT-4 cells; test: CTG (CellTiter-Glo) cell viability assay, MOLT-4; details: Homo sapiens, MOLT-4, 72 h, 3 day incubation, read-out: CTG Cell Viability Assay - MOLT-4 3 day: Average external-IC50
Outline: as §1

Row | Compound | Dmax [2] [%] | DC50 [2] [nM] | IC50 [3] [nM] | IC50 [1] [nM]
1 | Cc1ncsc1-c1ccc([C@H](C)NC(=O)[C@@H]2C[C@@H](O)CN2C(=O)[C@@H](NC(=O)C2CCN(c3ccc(S(=O)(=O)NC(=O)c4nc(N5CCc6cccc(C(=O)Nc7nc8ccccc8s7)c6C5)ccc4-c4cnn(CC5CCCC5)c4C)cc3)CC2)C(C)(C)C)cc1 [I-348] | > 75 | < 10 | < 100 | > 10000
2 | Cc1ncsc1-c1ccc([C@H](C)NC(=O)[C@@H]2C[C@@H](O)CN2C(=O)[C@H](NC(=O)CCCCCCCS(=O)(=O)NC(=O)c2nc(N3CCc4cccc(C(=O)Nc5nc6ccccc6s5)c4C3)ccc2-c2cnn(CC34CC5CC(CC(C5)C3)C4)c2C)C(C)(C)C)cc1 [I-284] | > 75 | < 10 | < 100 | 100 to 1000
3 | Cc1ncsc1-c1ccc(CNC(=O)[C@@H]2C[C@@H](O)CN2C(=O)[C@@H](NC(=O)CCc2ccc(S(=O)(=O)NC(=O)c3nc(N4CCc5cccc(C(=O)Nc6nc7ccccc7s6)c5C4)ccc3-c3cnn(CC4CCCCC4)c3C)c(F)c2)C(C)(C)C)cc1 [I-320] | > 75 | 100 to 500 | 1000 to 3000 | > 10000
4 | Cc1ncsc1-c1ccc(CNC(=O)[C@@H]2C[C@@H](O)CN2C(=O)[C@@H](NC(=O)CCc2ccc(S(=O)(=O)NC(=O)c3nc(N4CCc5cccc(C(=O)Nc6nc7ccccc7s6)c5C4)ccc3-c3cnn(CC(C)C)c3C)cc2)C(C)(C)C)cc1 [I-318] | > 75 | 10 to 100 | < 100 | 1000 to 10000
5 | Cc1ncsc1-c1ccc(CNC(=O)[C@@H]2C[C@@H](O)CN2C(=O)[C@@H](NC(=O)COc2ccc(S(=O)(=O)NC(=O)c3nc(N4CCc5cccc(C(=O)Nc6nc7ccccc7s6)c5C4)ccc3-c3cnn(CC4CCCCC4)c3C)cc2)C(C)(C)C)cc1 [I-327] | > 75 | 10 to 100 | < 100 | 1000 to 10000
6 | Cc1ncsc1-c1ccc(CNC(=O)[C@@H]2C[C@@H](O)CN2C(=O)[C@@H](NC(=O)CCc2cc(F)c(S(=O)(=O)NC(=O)c3nc(N4CCc5cccc(C(=O)Nc6nc7ccccc7s6)c5C4)ccc3-c3cnn(CC4CCCCC4)c3C)c(F)c2)C(C)(C)C)cc1 [I-347] | > 75 | 10 to 100 | 100 to 1000 | > 10000
7 | Cc1ncsc1-c1ccc([C@H](C)NC(=O)[C@@H]2C[C@@H](O)CN2C(=O)[C@@H](NC(=O)CCCc2ccc(S(=O)(=O)NCc3nc(N4CCc5cccc(C(=O)Nc6nc7ccccc7s6)c5C4)ccc3-c3cnn(CC4CCCCC4)c3C)cc2)C(C)(C)C)cc1 [I-307] | < 50 | > 1000 | 1000 to 3000 | > 10000
8 | Cc1ncsc1-c1ccc([C@H](C)NC(=O)[C@@H]2C[C@H](O)CN2C(=O)[C@@H](NC(=O)C2CCN(c3ccc(S(=O)(=O)NC(=O)c4nc(N5CCc6cccc(C(=O)Nc7nc8ccccc8s7)c6C5)ccc4-c4cnn(CC5CCCCC5)c4C)cc3)CC2)C(C)(C)C)cc1 [I-295] | 50 to 75 | 10 to 100 | 100 to 1000 | 1000 to 10000
9 | C#Cc1ccc(CNC(=O)[C@@H]2C[C@@H](O)CN2C(=O)[C@@H](NC(=O)CCc2ccc(S(=O)(=O)NC(=O)c3nc(N4CCc5cccc(C(=O)Nc6nc7ccccc7s6)c5C4)ccc3-c3cnn(CC(C)C)c3C)cc2)C(C)(C)C)cc1 [I-319] | 50 to 75 | > 1000 | > 3000 | > 10000
10 | Cc1ncsc1-c1ccc([C@H](C)NC(=O)[C@@H]2C[C@@H](O)CN2C(=O)[C@@H](NC(=O)CCNCCS(=O)(=O)NC(=O)c2nc(N3CCc4cccc(C(=O)Nc5nc6cccnc6s5)c4C3)ccc2-c2cnn(CC3CCCCC3)c2C)C(C)(C)C)cc1 [I-376] | > 75 | 10 to 100 | > 3000 | > 10000
11 | C#Cc1ccc(CNC(=O)[C@@H]2C[C@@H](O)CN2C(=O)[C@H](NC(=O)CCCCCS(=O)(=O)NC(=O)c2nc(N3CCc4cccc(C(=O)Nc5nc6ccccc6s5)c4C3)ccc2-c2cnn(CC3CCCCC3)c2C)C(C)(C)CCO)cc1 [I-355] | > 75 | 100 to 500 | 1000 to 3000 | > 10000
12 | C#Cc1ccc([C@H](CO)NC(=O)[C@@H]2C[C@@H](O)CN2C(=O)[C@@H](NC(=O)CCNCCS(=O)(=O)NC(=O)c2nc(N3CCc4cccc(C(=O)Nc5nc6cccnc6s5)c4C3)ccc2-c2cnn(CC3CCCCC3)c2C)C(C)(C)C)cc1 [I-378] | > 75 | 10 to 100 | 100 to 1000 | > 10000
13 | Cc1ncsc1-c1ccc([C@H](C)NC(=O)[C@@H]2C[C@@H](O)CN2C(=O)[C@H](c2cc(OC3CC4(C3)CN(C(=O)c3nc(N5CCc6cccc(C(=O)Nc7nc8ccccc8s7)c6C5)ccc3-c3cnn(CC5CCCCC5)c3C)C4)no2)C(C)C)cc1 [I-293] | < 50 | 500 to 1000 | 1000 to 3000 | 1000 to 10000

Second part, led by results:

Row | Dmax [2] [%] | DC50 [2] [nM] | IC50 [3] [nM] | Compound | IC50 [1] [nM]
14 | > 75 | 10 to 100 | 100 to 1000 | C#Cc1ccc(CNC(=O)[C@@H]2C[C@@H](O)CN2C(=O)[C@@H](NC(=O)CCNCCS(=O)(=O)NC(=O)c2nc(N(C)c3cc(C)c(Nc4nc5ccccc5s4)nn3)ccc2-c2cnn(CC34CC5CC(CC(C5)C3)C4)c2C)C(C)(C)C)cc1 [I-429] | > 10000
15 | 50 to 75 | < 10 | < 100 | C#Cc1ccc(CNC(=O)[C@@H]2C[C@@H](O)CN2C(=O)[C@H](c2cc(N3CCN(c4ccc(S(=O)(=O)NC(=O)c5nc(N6CCc7cccc(C(=O)Nc8nc9ccccc9s8)c7C6)ccc5-c5cnn(CC6CCCCC6)c5C)cc4)CC3)no2)C(C)C)c(OC)c1 [I-408] | > 10000
16 | > 75 | < 10 | < 100 | Cc1cc(N(C)c2ccc(-c3cnn(CC45CC6CC(CC(C6)C4)C5)c3C)c(C(=O)NS(=O)(=O)CCCCCC(=O)N[C@H](C(=O)N3C[C@H](O)C[C@H]3C(=O)N[C@@H](C)c3ccc4c(c3)c(C)nn4C)C(C)(C)C)n2)nnc1Nc1nc2ccccc2s1 (single isomer, unassigned) [I-491] | > 10000
17 | > 75 | < 10 | < 100 | C#Cc1ccc([C@H](C)NC(=O)[C@@H]2C[C@@H](O)CN2C(=O)[C@@H](NC(=O)CCCCCS(=O)(=O)NC(=O)c2nc(N(C)c3cc(C)c(Nc4nc5ccccc5s4)nn3)ccc2-c2cnn(CC34CC5CC(CC(C5)C3)C4)c2C)C(C)(C)C)cc1 [I-382] | > 10000
18 | > 75 | < 10 | < 100 | Cc1cc(N(C)c2ccc(-c3cnn(CC45CC6CC(CC(C6)C4)C5)c3C)c(C(=O)NS(=O)(=O)CCCCCC(=O)N[C@H](C(=O)N3C[C@H](O)C[C@H]3C(=O)NCc3ccc4c(c3)c(C)nn4C)C(C)(C)C)n2)nnc1Nc1nc2ccccc2s1 [I-484] | > 10000
19 | > 75 | 10 to 100 | < 100 | Cc1ncsc1-c1ccc(CNC(=O)[C@@H]2C[C@@H](O)CN2C(=O)[C@@H](NC(=O)[C@@H]2CCN(c3ccc(S(=O)(=O)NC(=O)c4nc(N5CCc6cccc(C(=O)Nc7nc8ccccc8s7)c6C5)ccc4-c4cnn(CC5CCCCC5)c4C)cc3)C2)C(C)(C)C)cc1 [I-410] | > 10000
20 | > 75 | 100 to 500 | 100 to 1000 | C#Cc1ccc(CNC(=O)[C@@H]2C[C@@H](O)CN2C(=O)[C@H](NC(=O)CCCCCS(=O)(=O)NC(=O)c2nc(N3CCc4cccc(C(=O)Nc5nc6ccccc6s5)c4C3)ccc2-c2cnn(CC3CCCCC3)c2C)C(C)(C)CCOP(=O)(O)O)cc1 [I-418] | > 10000
21 | > 75 | 100 to 500 | > 3000 | C#Cc1ccc(CNC(=O)[C@@H]2C[C@@H](O)CN2C(=O)[C@@H](NC(=O)CCCCS(=O)(=O)NC(=O)c2nc(N(C)c3cc(C)c(Nc4nc5cccnc5s4)nn3)ccc2-c2cnn(CC34CC5CC(CC(C5)C3)C4)c2C)C(C)(C)C)cc1 [I-453] | > 10000
22 | > 75 | 500 to 1000 | 1000 to 3000 | Cc1cc(N(C)c2ccc(-c3cnn(CC4CCCCC4)c3C)c(C(=O)NS(=O)(=O)CCCCCC(=O)N[C@H](C(=O)N3C[C@H](O)C[C@H]3C(=O)N[C@@H](C)c3ccc(-c4scnc4C)cc3)C(C)(C)C)n2)nnc1Nc1nc2cccnc2s1 [I-436] | > 10000
23 | > 75 | 10 to 100 | < 100 | COc1nn(C)c2ccc([C@H](C)NC(=O)[C@@H]3C[C@@H](O)CN3C(=O)[C@@H](NC(=O)CCCCCS(=O)(=O)NC(=O)c3nc(N4CCc5cccc(C(=O)Nc6nc7cccnc7s6)c5C4)ccc3-c3cnn(CC4CCCCC4)c3C)C(C)(C)C)cc12 [I-489] | > 10000
24 | > 75 | 10 to 100 | < 100 | C#Cc1ccc(CNC(=O)[C@@H]2C[C@@H](O)CN2C(=O)[C@@H](NC(=O)CCCCCS(=O)(=O)NC(=O)c2nc(N3CCc4cccc(C(=O)Nc5nc6ccccc6s5)c4C3)ccc2-c2cnn(CC(C)(C)C)c2C)C(C)(C)C)cc1 [I-471] | > 10000
25 | > 75 | < 10 | < 100 | C#Cc1ccc(CNC(=O)[C@@H]2C[C@@H](O)CN2C(=O)[C@@H](NC(=O)CCCCCS(=O)(=O)NC(=O)c2nc(N3CCc4cccc(C(=O)Nc5nc6ccccc6s5)c4C3)ccc2-c2cnn(CC3CCCC3)c2C)C(C)(C)C)cc1 [I-444] | > 10000
26 | > 75 | 500 to 1000 | 1000 to 3000 | C#Cc1ccc([C@H](C)NC(=O)[C@@H]2C[C@@H](O)CN2C(=O)[C@@H](NC(=O)CCCCCS(=O)(=O)NC(=O)c2nc(N(C)c3cc(C)c(Nc4nc5ccccc5s4)nn3)ccc2-c2cnn(CC(C)(C)C)c2C)C(C)(C)C)cc1 [I-473] | > 10000
